Assay results taken from the NIST ThermoML archive (doi:10.1007/s10765-011-0995-x).

Legend:
[1] = xn = mol fraction of the nth substance listed; conditions: 101 kPa, Liquid; for speed of sound: Pulse-echo method
[2] = refractive index (Na D-line) (dimensionless); xn = mol fraction of the nth substance listed; conditions: 101 kPa, Liquid, Standard Abbe refractometry

Cc1ccccc1Cl [2-chlorotoluene] + CCCCCCCCCCO
Conditions	mass density, [1] [kg/m3]	refractive index, [2]	speed of sound, [1] [m/s]	viscosity, [1] [mPa·s]
298.15 K, x1 = 0.0734	838.4	1.4377	1373.9	10
298.15 K, x1 = 0.1537	852.15	1.4413	1366.5	8.277
298.15 K, x1 = 0.2064	861.61	1.444	1361.3	7.283
298.15 K, x1 = 0.2747	874.4	1.4479	1354.2	6.13
298.15 K, x1 = 0.345	888.32	1.4524	1346.6	5.101
298.15 K, x1 = 0.4107	902.06	1.4569	1339.4	4.289
298.15 K, x1 = 0.489	919.52	1.4628	1330.9	3.477
298.15 K, x1 = 0.5555	935.39	1.4685	1323.8	2.906
298.15 K, x1 = 0.6158	950.72	1.4741	1317.6	2.468
298.15 K, x1 = 0.6813	968.52	1.4806	1311.5	2.075
298.15 K, x1 = 0.7475	987.82	1.4878	1306	1.742
298.15 K, x1 = 0.8205	1010.87	1.4966	1301.2	1.446
298.15 K, x1 = 0.884	1032.61	1.505	1298.7	1.235
298.15 K, x1 = 0.9469	1056.04	1.514	1298.5	1.062
298.15 K, x1 = 1	1077.41	1.5219	1301.2	0.943
303.15 K, x1 = 0.0734	834.73	1.4359	1358.4	8.289
303.15 K, x1 = 0.1537	848.3	1.4394	1350.5	6.862
303.15 K, x1 = 0.2064	857.65	1.4423	1344.9	6.042
303.15 K, x1 = 0.2747	870.31	1.4462	1337.3	5.103
303.15 K, x1 = 0.345	884.08	1.4505	1329.3	4.266
303.15 K, x1 = 0.4107	897.72	1.4549	1321.7	3.603
303.15 K, x1 = 0.489	915.05	1.4608	1312.7	2.952
303.15 K, x1 = 0.5555	930.83	1.4664	1305.2	2.486
303.15 K, x1 = 0.6158	946.09	1.4719	1298.8	2.133
303.15 K, x1 = 0.6813	963.84	1.4784	1292.5	1.806
303.15 K, x1 = 0.7475	983.1	1.4855	1286.9	1.538
303.15 K, x1 = 0.8205	1006.13	1.4941	1282.3	1.294
303.15 K, x1 = 0.884	1027.9	1.5023	1280	1.124
303.15 K, x1 = 0.9469	1051.38	1.5111	1280.6	0.984
303.15 K, x1 = 1	1072.83	1.5189	1284.1	0.885
308.15 K, x1 = 0.0734	831.1	1.4339	1339.3	6.889
308.15 K, x1 = 0.1537	844.55	1.4378	1330.9	5.734
308.15 K, x1 = 0.2064	853.84	1.4406	1324.9	5.078
308.15 K, x1 = 0.2747	866.4	1.4445	1316.8	4.313
308.15 K, x1 = 0.345	880.08	1.4489	1308.2	3.637
308.15 K, x1 = 0.4107	893.62	1.4534	1300	3.08
308.15 K, x1 = 0.489	910.82	1.4592	1290.6	2.528
308.15 K, x1 = 0.5555	926.51	1.4648	1283.1	2.134
308.15 K, x1 = 0.6158	941.68	1.4702	1276.7	1.837
308.15 K, x1 = 0.6813	959.32	1.4767	1270.8	1.566
308.15 K, x1 = 0.7475	978.5	1.4839	1266.1	1.338
308.15 K, x1 = 0.8205	1001.49	1.4924	1262.5	1.135
308.15 K, x1 = 0.884	1023.23	1.5005	1261.6	0.995
308.15 K, x1 = 0.9469	1046.71	1.5092	1262.2	0.879
308.15 K, x1 = 1	1068.24	1.5169	1266.1	0.805
